Entries after “also recorded” stand apart in the source; their conditions may differ.

The target in series [1] is T1, hSERT (Homo sapiens, UniProt P31645).
T1 construct: expressed in transfected cells; the general 96-well protocol names Cos-1
The series is described as follows: 5-HT uptake assay, 10 min incubation without preincubation. The settings on record: 75 nM [3H]-5-HT, no preincubation. It counts as cell-based. The method, then: Cells were grown for 48 h to confluency, and prior to uptake assay, plates were washed in PBSCM. All washing steps were carried out in an automatic plate washer. […] The assay was terminated by washing with PBSCM. The amount of accumulated [^3H]-5HT was determined by solubilizing cells in scintillant (MicroScint 20) with direct counting of plates in a Packard TopCounter. Data was analyzed by GraphPad software.
(§1) Dissociation of [^3H]-citalopram from the serotonin transporter has been studied using membrane preparations from SERT-expressing cells. The off-rates of the radioligand were measured in the presence/absence of a fixed concentration of allosteric ligand. […] Additionally, the allosteric impact on the radioligand in the absence of citalopram, was studied by combining 10 μM fluoxetine and 200/2000 μM allosteric ligand in the dissociation buffer. […] The cells were incubated for 10 minutes before the assay was terminated by washing in PBSCM.

Series [2] deals with T1, hSERT. The series is described as follows: Binding of [3H]-citalopram to membrane preparations. Conditions: 35 nM [3H]-citalopram, 60 min RT. How it is done:
(§2) 17.5 μl Fugene-6 (Roche Molecular Biochemicals) were mixed with 280 μl Dulbecco's modified Eagle's medium, and incubated at room temperature for 5 minutes. 10 μg of plasmid were added and the mixture was further incubated at least 15 minutes. […] Prior to harvesting the dish was rinsed in PBS. Cells were harvested with a cell scraper in buffer 1 (50 mM Tris-base, 150 mM NaCl, 20 mM EDTA, pH 7.4). After centrifugation (3000 g at 4° C. for 10 mins), cells were suspended and homogenized with an IKA Ultra-Turrax from Rose Scientific Ltd (Edmonton, Alberta, Canada) for 20 s in buffer 1. Membranes were pelleted by ultracentrifugation (12 000 g at 4° C. for 15 min) and homogenization was repeated in buffer 1. Finally, after ultracentrifugation (12000 g, 4° C., 15 min) membranes were resuspended in 1 ml buffer 3 (50 mM Tris-base, 120 mM NaCl, 5 mM KCl, pH 7.4) and stored at −80° C.
A dilution series of the allosteric ligand was prepared in buffer 3 containing 70 nM [^3H]-citalopram. […] The mixture was incubated under moderate agitation at RT for 60 min. Reactions were terminated by filtration through GF/C glass-fibre filters (Unifilter, Perkin Elmer Life Sciences), preincubated with 40 μl 0.5 % polyethyleneimine, using a Pachard Bell cell harvester, and subsequently washed three times with water. Filters were soaked in 40 μl Microscint 20 scintillation liquid (Pachard Bell). Bound radioactivity was determined by direct counting of plates using a Packard Bell microplate scintillation counter. Displacing curves were obtained by plotting residual binding vs. log concentration of the displacing ligand.

The test system of series [3] is dorsal raphe 5-HT neurons. It counts as in vivo. The method, then: The experiments were carried out in male Sprague-Dawley rats weighing 250-300 g at the day of the recording. Prior to the acute study, a dose-response curve on the suppressive effect on neuronal firing of fluoxetine was constructed. Subsequently, in the acute study, 5 mg/kg 1-NSC was injected i.v. followed by administration of 1 mg/kg fluoxetine. In the chronic administration experiments, groups of rats were treated with fluoxetine (10 mg/kg/day), 1-NSC (2×10 mg/kg/day) or in combination for 7 days delivered subcutaneously (s.c.) with osmotic minipumps. Control rats received a minipump containing vehicle (NaCl 0.9%). The rats were tested with the minipumps in place.
Extracellular recordings were performed with single-barreled glass micropipettes preloaded with fiberglass filaments in order to facilitate filling. The tip was broken back to 2-4 μm and filled with a 2 M NaCl solution saturated with Pontamine Sky Blue to stain the location. The rats were placed in a stereotaxic frame and a burr hole was drilled on the midline, 1 mm anterior to lambda. Presumed DRN 5-HT neurons were encountered over a distance of 1 mm starting immediately below the ventral border of the Sylvius aqueduct. These neurons were identified using the criteria of Aghajanian (1978): a slow (0.5-2.5 Hz) and regular firing rate and long-duration (0.8-1.2 ms) positive action potentials; they were also verified to be located in DRN. WAY 100635 (N-{2-[4(2-methoxyphenyl)-1-piperazinyl]ethyl}-N-(2-pyridinyl)cyclohexanecarboxamide trihydrochloride; 50-100 μg/kg, i.v.) was used to reverse the suppressant effect of fluoxetine or fluoxetine/1-NSC on the firing activity of DRN 5-HT neurons. […] For the chronic studies, in order to determine the possible changes of the spontaneous firing activity of dorsal raphe 5-HT neurons, four to five electrode descents were carried out through this nucleus, in rats with minipumps in place.
The allosteric ligand 1-NSC was tested in vivo in Sprague-Dawley rats for the ability to interfere with fluoxetine-induced suppression of the neuronal firing rate (Assay 6).

In series [4] the target is T1, hSERT. Description: Dissociation assay with [3H]-citalopram and hSERT membrane preparations. It counts as binding. The settings on record: for Stabilises dissociation of [3H]-citalopram: own effect (10 uM fluoxetine) (concentration which affects dissociation): 10 uM fluoxetine in dissociation buffer; for Stabilises dissociation of [3H]-citalopram: 15 uM citalopram (concentration which affects dissociation): 15 uM citalopram in dissociation buffer. The method, then:
as §2
Dissociation assay with [^3H]-citalopram and membrane preparations SERT-[^3H]-citalopram complex was formed by incubating hSERT membrane preparation and radioligand in buffer 3 during a 60 min incubation at 4° C. Radioligand was present at a concentration 10 times the Kd value. The time kinetic of dissociation was followed by adding 10 μL complex solution to 250 μL buffer 3 in 96-well plates and incubating subsequently for increasing time intervals at RT. Reactions were terminated by filtration through GF/C glass-fibre filters (Unifilter, Perkin Elmer Life Sciences), preincubated with 40 μl 0.5 % polyethyleneimine, using a Pachard Bell cell harvester, and subsequently washed three times with water. Filters were soaked in 40 μl Microscint 20 scintillation liquid (Pachard Bell). Bound radioactivity was determined by direct counting of plates using a Packard Bell microplate scintillation counter. Dissociation curves were obtained by plotting residual binding vs. time of dissociation.
The interaction of the allosteric ligand with the allosteric mechanism used by citalopram was studied by combining allosteric ligand and citalopram in the dissociation buffer. The interaction of the allosteric ligand with the radioligand was studied by combining the allosteric ligand and fluoxetine in the dissociation buffer.
as §1

Series [5] has as its target T1, hSERT. The series is described as follows: Binding of [125I]-RTI-55 in whole cell assay, hSERT. Conditions: displacement of [125I]-RTI-55. From the text:
RTI-55 was used to test for the compounds of the present invention to act as displacers of cocain.
(§3) Because RTI-55 (and cocaine) acts as inhibitors of SERT and DAT, we also performed the binding assay in cells transfected with human DAT.

The target of series [6] is T1, hSERT. The series is described as follows: 5-HT uptake assay with preincubation (whole cells). Conditions: whole cell assay with preincubation (title 45 min, text 60 min), 75 nM [3H]-5-HT, 10 min. It counts as cell-based. The method, then: 7 μl Fugene-6 was mixed with 112 μl Dulbecco's modified Eagle's medium, and incubated at room temperature for 5 minutes. 4 μg of plasmid were added and the mixture was further incubated at least 15 minutes. Cos-1 cells were trypsinized and suspended in growth media, and the plasmid/Fugene-6 mixture was added followed by dispersion into a 96-well plate.
The 96-well plate was washed with PBSCM to remove DMEM prior to the assay. 50 μl PBSCM containing increasing concentrations of allosteric ligand were added to each well, and incubated for 60 min at room temperature under moderate agitation. […] The plate was subsequently incubated for 10 min at room temperature. The assay was terminated by washing once with PBSCM. The amount of accumulated [^3H]-5-HT was determined by solubilizing cells in scintillant (MicroScint 20) with direct counting of plates in a Packard TopCounter. Data was analyzed by GraphPad software.
We tested the allosteric ligands for their ability to inhibit/activate 5-HT-uptake in the whole-cell assay after 60 minutes preincubation.

The target of series [7] is T1, hSERT. The series is described as follows: Binding assay on whole cells transfected with hSERT ([3H]-citalopram displacement). Conditions: whole cell assay, 35 nM [3H]-citalopram, 60 min room temperature; table title: 45 min preincubation. How it is done: The pcDNA3 plasmid vector containing the hSERT gene was used for transfection (see FIG. 6).
The 96-well plate was washed with PBSCM to remove DMEM prior to the assay. […] The plate was subsequently incubated for 60 min at room temperature. The assay was terminated by washing once with PBSCM. The amount of accumulated [^3H]-citalopram was determined by solubilizing cells in scintillant (MicroScint 20) with direct counting of plates in a Packard TopCounter. Data was analyzed by GraphPad software.

Series [8] concerns the target T2, hDAT (Homo sapiens, UniProt Q01959).
T2 construct: expressed in transfected cells
Description: Binding of [125I]-RTI-55 in whole cell assay, cells transfected with human DAT. Conditions: displacement of [125I]-RTI-55.
Source text: A binding assay as described in example 2, wherein the cocaine analogue [^125I] RTI-55 was used to test for the compounds of the present invention to act as displacers of cocain.
as §3

T1 sequence (P31645 whole entry): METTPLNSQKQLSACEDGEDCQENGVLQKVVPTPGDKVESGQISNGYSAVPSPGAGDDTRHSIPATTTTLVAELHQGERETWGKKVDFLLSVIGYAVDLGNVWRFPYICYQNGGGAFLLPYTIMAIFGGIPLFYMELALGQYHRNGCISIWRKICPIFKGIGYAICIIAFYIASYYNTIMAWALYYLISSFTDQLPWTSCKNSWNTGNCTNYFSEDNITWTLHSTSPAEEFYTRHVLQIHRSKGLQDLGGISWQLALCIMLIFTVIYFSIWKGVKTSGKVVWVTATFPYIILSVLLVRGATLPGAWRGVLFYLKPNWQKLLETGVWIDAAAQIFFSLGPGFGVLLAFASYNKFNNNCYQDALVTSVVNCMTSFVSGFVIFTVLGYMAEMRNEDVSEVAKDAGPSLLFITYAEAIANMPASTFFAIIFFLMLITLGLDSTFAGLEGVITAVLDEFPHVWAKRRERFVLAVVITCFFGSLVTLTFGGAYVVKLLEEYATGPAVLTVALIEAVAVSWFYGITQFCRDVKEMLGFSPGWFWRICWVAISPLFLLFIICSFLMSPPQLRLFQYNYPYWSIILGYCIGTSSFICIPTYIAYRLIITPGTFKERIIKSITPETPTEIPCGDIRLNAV
T2 sequence (Q01959 whole entry): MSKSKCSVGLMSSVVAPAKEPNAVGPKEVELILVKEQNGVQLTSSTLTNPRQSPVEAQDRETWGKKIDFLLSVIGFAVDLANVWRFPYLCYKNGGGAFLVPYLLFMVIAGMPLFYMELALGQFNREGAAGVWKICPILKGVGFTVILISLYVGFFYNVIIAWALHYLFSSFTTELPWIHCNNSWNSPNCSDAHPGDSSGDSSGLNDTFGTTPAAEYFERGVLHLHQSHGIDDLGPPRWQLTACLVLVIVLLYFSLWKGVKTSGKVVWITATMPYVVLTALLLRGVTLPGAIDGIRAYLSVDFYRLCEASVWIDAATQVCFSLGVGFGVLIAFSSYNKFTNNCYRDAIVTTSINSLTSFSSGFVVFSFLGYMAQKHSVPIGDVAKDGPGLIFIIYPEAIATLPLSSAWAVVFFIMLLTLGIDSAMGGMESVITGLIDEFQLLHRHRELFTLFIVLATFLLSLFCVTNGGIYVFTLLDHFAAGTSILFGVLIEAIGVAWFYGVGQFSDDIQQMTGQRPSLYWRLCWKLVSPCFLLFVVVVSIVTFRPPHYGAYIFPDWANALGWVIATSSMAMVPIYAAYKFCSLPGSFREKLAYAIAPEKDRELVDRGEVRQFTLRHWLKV

For `O=S(=O)(Cl)c1cccc2ccccc12` [1-NSC, 1-naphthalenesulfonyl chloride], the “5-HT uptake (effect)” value in series [1] is reported as “Increase”. Further, the “Binding of [3H]-citalopram (Bmax)” value in series [2] was “Displace”. The “effect of 1-NSC alone on neuronal firing rate” value in series [3] (acute injection, restored within minutes (FIG. 1)) is “small decrease in neuronal firing rate”. Also, the “effect on fluoxetine-induced suppression of the neuronal firing rate” value in series [3] (acute study, 5 mg/kg 1-NSC then 1 mg/kg fluoxetine, DRN (FIG. 1)) was “acutely enhances the fluoxetine-induced suppression of the neuronal firing rate; also recorded: potentiation of the fluoxetine-induced suppression of the neuronal firing rate”. Also, the “recovery of dorsal raphe 5-HT neuronal firing of fluoxetine treated rats (FIG. 2)” value in series [3] (chronic treatment, 7 day period) is listed as “potentiated”. Besides, in series [3] (doses used in the experiments of FIGS. 1 and 2, rats), the toxic side effects entry is listed as “no apparent toxic side effects”. In series [4], the “Stabilises dissociation of [3H]-citalopram: own effect (10 uM fluoxetine) (concentration which affects dissociation)” value was determined as 2000 µM and the “Stabilises dissociation of [3H]-citalopram: 15 uM citalopram (concentration which affects dissociation)” value worked out at 2000 µM.
In the case of `OB(O)c1ccccc1` [TS3], the EC50 is more than 2000 µM in series [5], 1420 µM in series [7] and more than 2000 µM in series [8]. Besides, the IC50 in series [6] was determined as 735 µM.
For the compound `CC(=O)c1ccccc1` [TS9], the EC50 in series [5] was more than 2000 µM; in series [7], 990 µM; in series [8], more than 2000 µM. In series [6], this compound showed an IC50 of more than 2000 µM.
With `Nc1ccc(S(=O)(=O)O)c2ccccc12` [TS12], the results for the EC50 in series [5], in series [7] and in series [8] were 269 µM, 523 µM and 212 µM, respectively.
`Cc1ccc(S(=O)(=O)n2ccnc2)cc1` [TS14]: the EC50 came to 2310 µM in series [5], 1260 µM in series [7] and 1280 µM in series [8]. In series [6], the IC50 was determined as 1820 µM. Also, the “5-HT uptake (effect)” value in series [1] is “No effect”. Besides, in series [2], the “Binding of [3H]-citalopram (Bmax)” value is on record as “No effect”. Further, the “Stabilises dissociation of [3H]-citalopram: own effect (10 uM fluoxetine) (concentration which affects dissociation)” value in series [4] turned out to be 2000 µM. Also, in series [4], the “Stabilises dissociation of [3H]-citalopram: 15 uM citalopram (concentration which affects dissociation)” value was determined as 2000 µM.
For the compound `Nc1c(O)cc(S(=O)(=O)O)c2ccccc12` [TS16], the EC50 in series [5] came to 1.1 µM; in series [7], 54 µM; in series [8], 2.9 µM. Also, the half-inhibitory concentration (IC50) in series [6] came to 453 µM.
In the same order, the values of `O=C(O)c1ccc2ccccc2c1O` [TS27] are 220 µM, 185 µM, 138 µM and 275 µM.
In the same order, the values of `O=C(O)c1c(O)ccc2ccccc12` [TS28] are 510 µM, 276 µM, 288 µM and more than 2000 µM.
Regarding `COc1ccccc1N1CCN(CCN(C(=O)C2CCCCC2)c2ccccn2)CC1.Cl.Cl.Cl` [Way 100,635, N-{2-[4(2-methoxyphenyl)-1-piperazinyl]ethyl}-N-(2-pyridinyl)cyclohexanecarboxamide trihydrochloride, reference compound], the “reversal of suppression of the neuronal firing rate” value in series [3] (50-100 ug/kg i.v. after fluoxetine or fluoxetine/1-NSC, trihydrochloride) is “reverses the suppressive effect of fluoxetine on the neuronal firing rate; also recorded: completely restored the neuronal firing rate”.
Turning to `CNCCC(Oc1ccc(C(F)(F)F)cc1)c1ccccc1` (centres unmarked) [fluoxetine, reference compound], in series [3] (chronic treatment 7 days s.c. minipumps, rats (FIG. 2)), the “recovery of the firing rates” value turned out to be 30%.

For the origin of these results see patent US20100048713A1, “COMPOUNDS ACTING ON THE SEROTONIN TRANSPORTER” (Aarhus Universitet, priority 2006, published 2010).
